Measurements taken from patent publication US11819498B2, “Methods and compositions for treating autophagy related disease states and conditions utilizing AMPK activation” (UNM RAINFOREST INNOVATIONS, priority 2019, dated 2023).
Where a SMILES comes first, the peptide text is derived from it. The star is where a group is joined. βNA = c1ccc2cc(N*)ccc2c1

Columns and labels:
[1] = test system: TAK1; assay: Western blot of HeLa cells treated with TAK1 inhibitor and LLOMe; type: cell-based; settings: 1 mM LLOMe 30 min (FIG. 5C)
Experimental: (§1) Western blotting and co-immunoprecipitation (co-IP) were performed as described previously (Chauhan et al., 2016). For TAK1 inhibition, the cells were treated with TAK1 inhibitor (5Z-oxozeanol) 1 h prior to LLOMe treatment. For co-IP, cells were transfected with plasmids as indicated in figures and lysed in NP-40 buffer containing protease inhibitor cocktail and PMSF. Lysates were incubated with antibodies at 4° C. for 4 h followed by incubation with protein G Dynabeads for 2 h at 4° C. Beads were washed three times with PBS and boiled with SDS containing sample buffer, samples were processed for immunoblotting to analyze the interactions between immunoprecipitated proteins.

[2] = test system: AMPKα1; assay: Western blot of Huh7 cells treated with TAK1 inhibitor and LLOMe; type: cell-based; settings: TAK1 inhibitor 1 h prior to 1 mM LLOMe 30 min
Experimental: as §1

[3] = test system: LC3; assay: LC3 response in Huh7 and HeLa cells treated with TAK1 inhibitor and LLOMe; type: cell-based; settings: with LLOMe (FIG. 5C)
Experimental: as §1

[4] = test system: AMPK; assay: Western blot of AMPK activation upon lysosomal damage by damaging agents; type: cell-based; settings: HEK293T cells, time and dose dependent, Western blot (FIGS. 4SE-F)
Experimental: as §1

[5] = test system: AMPKα1 on lysosomes; assay: LysoIP lysosome purification and immunoblot; type: cell-based; settings: HEK293T cells, 1 mM LLOMe 30 min, LysoIP (FIG. 6B)
Experimental: Stable LysoIP cells were produced, by utilizing lentiviruses constructs from David M. Sabatini Lab (White Head Institute). HEK293T cells were transfected with pLJC5-TMEM192-3xHA or pLJC5-TMEM192-2XFLAG constructs in combination with pCMV-VSV-G and psPAX2 packaging plasmids, 60 h after transfection, the supernatant containing lentiviruses was collected and centrifuged to remove cells and then frozen at −80° C. To establish LysoIP stably expressing cell lines, HEK293T, Huh7 or Huh7 Gal9^KO cells were plated in […] in DMEM with 10% FBS and infected with 500 μL of virus-containing media overnight followed by addition of 1 μg/mL puromycin for selection. Cells were plated in 15 cm^2 culture plates and were used at 90% confluency for each LysoIP. Cells with or without 1 mM LLOMe treatment were quickly rinsed twice with PBS and then scraped in 1 mL of KPBS (136 mM KCl, 10 mM KH2PO4, pH7.25 was adjusted with KOH) and centrifuged at 3000 rpm for 2 min at 4° C. Pelleted cells were resuspended in 950 μL KPBS and reserved 25 μL for further processing of the whole-cell lysate. The remaining cells were gently homogenized with 20 strokes of a 2 mL homogenizer. The homogenate was then centrifuged at 3000 rpm for 2 min at 4° C. and the supernatant was incubated with 100 μL of KPBS prewashed anti-HA magnetic beads (ThermoFisher) on a gentle rotator shaker for 3 min. […]

[6] = test system: ALIX puncta; assay: ALIX puncta by high content microscopy in THP-1 cells; type: cell-based; settings: 250 μM metformin 2 h or 250 μM LLOMe 1 h (FIG. 5SF)
Experimental: (§2) The cells were plated in 96 well plates on day 1 and were treated on day 2, followed by fixation in 4% paraformaldehyde for 5 min. After fixation, cells were washed twice with 1×PBS and were then permeabilized with 0.1% saponin in 3% Bovine serum albumin (BSA) for 30 min. The cells were then incubated with primary antibodies O/N at 4° C. On day3, the cells were washed twice with 1×PBS and incubated with secondary antibodies for 1 h followed by 5 min incubation with Hoechst 33342. High content microscopy with automated image acquisition and quantification was carried out using a Cellomics HCS scanner and iDEV software (ThermoFisher Scientific). Automated epifluorescence image collection was performed for a minimum of 500 cells per well. Epifluorescence images were machine analyzed using preset scanning parameters and object mask definitions. Hoechst 33342 staining was used for autofocus and to automatically define cellular outlines based on background staining of the cytoplasm. Primary objects were cells, and regions of interest (ROI) or targets were algorithm-defined by shape/segmentation, maximum/minimum average intensity, total area and total intensity, etc., to automatically identify puncta or other profiles within valid primary objects. All data collection, processing (object, ROI, and target mask assignments) and analyses were computer driven independently of human operators.

[7] = test system: autophagy; settings: cited studies; cited from earlier work
[8] = test system: Gal9 complexes with AMPK and TAK1; assay: APEX2-Gal9 proximity biotinylation and co-IP after LLOMe; type: cell-based
Experimental: as §1

[9] = test system: LysoTracker Red staining of acidified compartments such as lysosomes; assay: LysoTracker assay in THP-1 cells; type: cell-based; settings: 250 μM for 2 h (FIG. 5SD)
Experimental: Prepare fresh LysoTracker Staining Solution (2 μL LysoTracker in 1 mL medium). Add 10 μL LysoTracker Staining Solution to no treatment, LLOMe treated or Metformin treated THP-1 cells in 96 wells for total 100 μL per well and incubate at 37° C. for 30 min protected from light. Rinse gently by 1×PBS and fix in 4% Paraformaldehyde for 2 min. Wash once by 1×PBS and blot with Hoechst 33342 for 2 min before detecting by high content microscopy.

[10] = test system: ubiquitin puncta; assay: Ubiquitin puncta by high content microscopy in THP-1 cells; type: cell-based; settings: 250 μM metformin 2 h compared with 250 μM LLOMe 1 h (FIG. 5SC)
Experimental: as §2

[11] = test system: Gal8 puncta; assay: Gal8 puncta by high content microscopy in THP-1 cells; type: cell-based; settings: 250 μM for 2 h, HCM (FIG. 5SB)
Experimental: as §2

[12] = test system: LC3 puncta; assay: LC3 puncta by high content microscopy in THP-1 cells; type: cell-based; settings: 250 μM metformin 2 h, compared with LLOMe (FIG. 7A)
Experimental: as §2

[13] = test system: Gal9 puncta; assay: Gal9 puncta by high content microscopy in metformin-treated cells; type: cell-based
Experimental: as §2

For `COc1cc(O)c2c(c1)/C=C/C[C@H](O)[C@H](O)C(=O)/C=C\C[C@H](C)OC2=O` [5ZO, (5-Z)-7-oxozeaenol], the “TAK1 activation with LLOMe” value [1] was “suppressed TAK1 activation”, the “phosphorylation of AMPK substrate ACC (pS79)” value [1] was “inhibition of phosphorylation” and the “phosphorylation of AMPKα1 (pT172)” value [1] was “inhibition of phosphorylation”. The “AMPKα1 activation upon lysosomal damage” value [2] was “prevented AMPKα1 activation” and the LC3 response [3] was “reduced the LC3 response”.

In the case of `NCC(=O)N[C@@H](Cc1ccccc1)C(=O)Nc1ccc2ccccc2c1` [GPN, Gly-Phe β-naphthylamide] (H-Gly-Phe-βNA), the “AMPK activation upon lysosomal damage” value [4] is reported as “activated”.

For `Br.COC(=O)[C@H](CC(C)C)NC(=O)[C@@H](N)CC(C)C` [LLOMe, Leu-Leu methyl ester hydrobromide], the “AMPKα1 on purified lysosomes” value [5] is listed as “enrichment of AMPKα1 on lysosomes”, the ALIX puncta response [6] is listed as “a robust response” and the autophagy induction [7] is listed as “has been shown to induce autophagy”. The “AMPK activation upon lysosomal damage” value [4] was “activated”, the “association between AMPK and Gal9” value ([8]; APEX2-Gal9 proximity biotinylation, 30 min of exposure (FIG. 4SA)) was “increased association” and the “mCherry-Gal9 association with GFP-TAK1” value ([8]; HeLa Flp-In Gal9 Tet-ON cells, 30 min of treatment (FIG. 4SB)) was “A similar increase”.

In the case of `CN(C)C(=N)N=C(N)N` [metformin], the “LysoTracker Red staining” value [9] is reported as “a decrease in staining”, the ALIX puncta response [6] is reported as “a milder but significant response” and the “ubiquitination response (ubiquitin puncta)” value [10] is reported as “a ubiquitination response albeit of a lesser magnitude than when applying an overt lysosomal damaging agent LLOMe”. The “puncta stained for Gal8” value [11] was “an increase in puncta stained for Gal8”, the “LC3 response (average area of LC3 puncta per cell)” value [12] was “a similar LC3 response” and the “response of Huh7 or 293T cells to metformin” value ([13]; Huh7 or 293T cells) was “did not respond”. The “lysosomal damage response, Gal9 puncta formation” value ([13]; THP-1 cells, 250 μM for 2 h, HCM (FIG. 5SB)) was “lysosomal damage response by detecting Gal9 puncta formation”.
